According to patent US20080287481A1, “PROCESS FOR THE PREPARATION OF DES[…] MIXTURES” (priority 2006, published 2008):

Conditions: all storage conditions of the table; consistency in the IR pattern
Source text: The term “stable” is used to describe an intimate mixture of desloratadine Form I and Form II that maintains the initial weight ratio of forms during formulation into a pharmaceutical dosage form and thereafter during a commercially useful period of normal storage and use, such as about one year, about 18 months, about two years, or any other desired period. […] Stability testing procedures are well known in the pharmaceutical industry.

Clc1ccc2c(c1)CCc1cccnc1C2=C1CCNCC1 [8-chloro-6,11-dihydro-11-(4-piperidylidene)-5H-benzo[5,6]cyclohepta[1,2-b]pyridine]
interconversion of forms during the storage period: no interconversion of forms
